Assay results published in ChEMBL document CHEMBL1201862, “PubChem BioAssay data set” (2004).
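Briefly, cells in 96-well plates were exposed to five compound concentrations for 48 h, and endpoints were estimated by linear interpolation. GI50 = concentration required for 50% inhibition of growth.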 Calls of active or inactive are those of the source. Rule as the data show it: active = GI50 up to about 1.1 µM and inactive = higher.

Columns and labels:
Assay in all cases: growth of human tumour cells (NCI), 48 h
ACHN = system: ACHN
COLO 205 = system: COLO 205
HCT-116 = system: HCT-116
HL-60 = system: HL-60
HOP-92 = system: HOP-92
HT-29 = system: HT-29
K562 = system: K562
KM12 = system: KM12
OVCAR-5 = system: OVCAR-5
SK-MEL-5 = system: SK-MEL-5
SN12C = system: SN12C
SNB-75 = system: SNB-75
SNB-78 = system: SNB-78
TK-10 = system: TK-10
DU-145 = system: DU-145
Hs-578T = system: Hs-578T
MCF7 = system: MCF7
MDA-MB-231 = system: MDA-MB-231
NCI/ADR-RES = system: NCI/ADR-RES
PC-3 = system: PC-3

Row | Structure (SMILES) | GI50 (ACHN) | GI50 (COLO 205) | GI50 (HCT-116) | GI50 (HL-60) | GI50 (HOP-92) | GI50 (HT-29) | GI50 (K562) | GI50 (KM12) | GI50 (OVCAR-5) | GI50 (SK-MEL-5) | GI50 (SN12C) | GI50 (SNB-75) | GI50 (SNB-78) | GI50 (TK-10) | GI50 (DU-145) | GI50 (Hs-578T) | GI50 (MCF7) | GI50 (MDA-MB-231) | GI50 (NCI/ADR-RES) | GI50 (PC-3)
1 | NC(=S)N/N=C(/CC(=O)c1ccccc1)C(=O)Nc1ccc(Cl)c(Cl)c1 | 75.2 µM (inactive) | > 100 µM (inactive) | > 100 µM (inactive) | 23.3 µM (inactive) | 40 µM (inactive) | > 100 µM (inactive) | > 100 µM (inactive) | 65.3 µM (inactive) | > 100 µM (inactive) | 41.7 µM (inactive) | > 100 µM (inactive) | > 100 µM (inactive) | > 100 µM (inactive) | > 100 µM (inactive) |  |  |  |  |  | 
2 | Cn1c(-c2ccccc2)c/c(=N\NS(C)(=O)=O)c2cc(S(=O)(=O)O)ccc21 | > 100 µM (inactive) | > 100 µM (inactive) | > 100 µM (inactive) | > 100 µM (inactive) | > 100 µM (inactive) | > 100 µM (inactive) | > 100 µM (inactive) | > 100 µM (inactive) | > 100 µM (inactive) | > 100 µM (inactive) | > 100 µM (inactive) | > 100 µM (inactive) | > 100 µM (inactive) | > 100 µM (inactive) |  |  |  |  |  | 
3 | COC(=O)C(Cc1nc2ccccc2nc1O)C(=O)C(=O)Nc1ccc([N+](=O)[O-])cc1[N+](=O)[O-] (centres undefined) | 18.2 µM (inactive) | 16.4 µM (inactive) | 21.2 µM (inactive) | 21.8 µM (inactive) |  | 19.4 µM (inactive) | 30.8 µM (inactive) | 16 µM (inactive) | 27.2 µM (inactive) | 18.3 µM (inactive) | 19.8 µM (inactive) | 16.3 µM (inactive) | 38.4 µM (inactive) | 26.4 µM (inactive) |  |  |  |  |  | 
4 | CCCCC(C(=O)C(=O)NC1C2CC3CC(C2)CC1C3)C(=O)C(C)C (centres undefined) | > 100 µM (inactive) | > 100 µM (inactive) | > 100 µM (inactive) | > 100 µM (inactive) | > 100 µM (inactive) | > 100 µM (inactive) | > 100 µM (inactive) | > 100 µM (inactive) | > 100 µM (inactive) | > 100 µM (inactive) | > 100 µM (inactive) | > 100 µM (inactive) | > 100 µM (inactive) | > 100 µM (inactive) |  |  |  |  |  | 
5 | c1ccc(C2=NOC3COc4ccccc4OCC23)cc1 (centres undefined) | > 100 µM (inactive) | > 100 µM (inactive) | > 100 µM (inactive) | 89.5 µM (inactive) |  | > 100 µM (inactive) | 72.6 µM (inactive) | 8.17 µM (inactive) |  | 61.5 µM (inactive) | > 100 µM (inactive) | 54.6 µM (inactive) | > 100 µM (inactive) | > 100 µM (inactive) |  |  |  |  |  | 
6 | Cc1nc2c(n1Cc1ccc(F)cc1)C(=O)c1ccccc1C2=O | 28.9 µM (inactive) | 18.9 µM (inactive) | 6.89 µM (inactive) | 5.48 µM (inactive) |  | 9.44 µM (inactive) | 5.61 µM (inactive) | 42.2 µM (inactive) |  | 10.3 µM (inactive) | 54 µM (inactive) | 36.6 µM (inactive) | > 100 µM (inactive) | > 100 µM (inactive) |  |  |  |  |  | 
7 | CC(=O)[O-].Cc1ncc(CO)c(/C=N/NC(N)=S)c1[O-].[Zn+2] | > 100 µM (inactive) | > 100 µM (inactive) | > 100 µM (inactive) | > 100 µM (inactive) |  | > 100 µM (inactive) | > 100 µM (inactive) |  | > 100 µM (inactive) | > 100 µM (inactive) | > 100 µM (inactive) | > 100 µM (inactive) | > 100 µM (inactive) | > 100 µM (inactive) |  |  |  |  |  | 
8 | COc1ccc(OC(C(=O)O)c2ccccc2)c2c1CCCC2=O (centres undefined) | > 100 µM (inactive) | > 100 µM (inactive) | > 100 µM (inactive) | > 100 µM (inactive) | > 100 µM (inactive) | > 100 µM (inactive) | > 100 µM (inactive) | > 100 µM (inactive) | > 100 µM (inactive) | > 100 µM (inactive) | > 100 µM (inactive) |  | > 100 µM (inactive) | > 100 µM (inactive) |  |  |  |  |  | 
9 | c1ccc(CN(Cc2ccccn2)Cn2cccn2)nc1 | 33 µM (inactive) | 57.1 µM (inactive) | 22.5 µM (inactive) | 22.9 µM (inactive) | 52.6 µM (inactive) |  | 36.6 µM (inactive) | 63.8 µM (inactive) |  | 43.9 µM (inactive) | 47.9 µM (inactive) | > 100 µM (inactive) | > 100 µM (inactive) | > 100 µM (inactive) |  |  |  |  |  | 
10 | Oc1nc(-c2cccc(F)c2)nc2ccccc12 | 31.1 µM (inactive) | > 100 µM (inactive) | 27.2 µM (inactive) | > 100 µM (inactive) | 30.7 µM (inactive) | > 100 µM (inactive) | 0.461 µM (active) | > 79.6 µM (inactive) | > 100 µM (inactive) | > 67.1 µM (inactive) | > 49.9 µM (inactive) | 16.6 µM (inactive) |  | 34.6 µM (inactive) | > 100 µM (inactive) | 15.7 µM (inactive) | 87.1 µM (inactive) | > 42.2 µM (inactive) | 45.5 µM (inactive) | 55.5 µM (inactive)
11 | CC(=O)N(O)Cc1ccccc1 | > 100 µM (inactive) | > 100 µM (inactive) | > 100 µM (inactive) | > 100 µM (inactive) | > 100 µM (inactive) | > 100 µM (inactive) | > 100 µM (inactive) | > 100 µM (inactive) | > 100 µM (inactive) | > 100 µM (inactive) | > 100 µM (inactive) | 67.9 µM (inactive) | > 100 µM (inactive) | > 100 µM (inactive) |  |  |  |  |  | 
12 | O=C1CC(c2ccc(Cl)cc2)C2(C(=O)NC(=S)NC2=O)C(c2ccc(Cl)cc2)C1 (centres undefined) | 36.2 µM (inactive) | 16.8 µM (inactive) | 18.7 µM (inactive) | 20.8 µM (inactive) | 5.31 µM (inactive) | 16.9 µM (inactive) | 30.5 µM (inactive) | 18.5 µM (inactive) | 19.6 µM (inactive) | 17 µM (inactive) | 18.2 µM (inactive) | 15.1 µM (inactive) |  | 41.1 µM (inactive) | 37.2 µM (inactive) | 30 µM (inactive) | 17.3 µM (inactive) | 20.2 µM (inactive) | 20.8 µM (inactive) | 20.1 µM (inactive)
13 | CCOC(=O)N1C/C(=C\c2ccc(N(C)C)cc2)C(=O)/C(=C/c2ccc(N(C)C)cc2)C1 | > 100 µM (inactive) | > 100 µM (inactive) | > 100 µM (inactive) | > 100 µM (inactive) | > 100 µM (inactive) | > 100 µM (inactive) | > 100 µM (inactive) | > 100 µM (inactive) | > 100 µM (inactive) | > 100 µM (inactive) | > 100 µM (inactive) | > 100 µM (inactive) | > 100 µM (inactive) | > 100 µM (inactive) |  |  |  |  |  | 
14 | COc1ccc(OC)c2[nH]c(Sc3c([N+](=O)[O-])ncn3C)nc12 | 27.8 µM (inactive) | 11.6 µM (inactive) | 21.7 µM (inactive) |  | 16.9 µM (inactive) | 28.4 µM (inactive) |  | 43.1 µM (inactive) | 94.6 µM (inactive) | 17.6 µM (inactive) | 19.9 µM (inactive) | 30.8 µM (inactive) | 20.9 µM (inactive) | 23.6 µM (inactive) |  |  |  |  |  | 
15 | O=C(O)Cc1ccc(Oc2nc3ccccc3nc2C(=O)O)cc1 | > 100 µM (inactive) | > 100 µM (inactive) | > 100 µM (inactive) | 0.0305 µM (active) | 79.1 µM (inactive) | > 100 µM (inactive) | 0.0849 µM (active) | > 100 µM (inactive) | > 100 µM (inactive) | > 100 µM (inactive) | > 100 µM (inactive) | > 100 µM (inactive) |  | > 100 µM (inactive) | > 100 µM (inactive) | > 100 µM (inactive) | > 100 µM (inactive) | > 100 µM (inactive) | > 100 µM (inactive) | > 100 µM (inactive)
16 | NCC(=O)OCN1C(=O)C2C3C=CC(C2C1=O)C1C2C(=O)N(COC(=O)CN)C(=O)C2C31 (centres undefined) | 24.5 µM (inactive) | 18.2 µM (inactive) | 14.6 µM (inactive) | 18.2 µM (inactive) | > 100 µM (inactive) | 36.6 µM (inactive) | 28.6 µM (inactive) | 20.8 µM (inactive) |  | 17.7 µM (inactive) | 23.3 µM (inactive) | 32.3 µM (inactive) | 53.6 µM (inactive) | 53.1 µM (inactive) |  |  |  |  |  | 
17 | CN(C)CCNC(=O)c1cccc2c(NC(CCCNC(=N)N)C(=O)O)c3ccccc3nc12 (centres undefined) | 2.79 µM (inactive) | 6.22 µM (inactive) | 3.93 µM (inactive) | > 100 µM (inactive) | 3.85 µM (inactive) | 2.7 µM (inactive) | 5.68 µM (inactive) | 7.26 µM (inactive) | 9.95 µM (inactive) | 6.05 µM (inactive) | 10.5 µM (inactive) | 8.83 µM (inactive) |  | 21.1 µM (inactive) | 17 µM (inactive) | 11.4 µM (inactive) | 5.27 µM (inactive) | 9.27 µM (inactive) | 3.75 µM (inactive) | 9.1 µM (inactive)
18 | CC1CC[C@@]2(OC1)O[C@H]1[C@H](O)[C@H]3[C@@H]4CC[C@H]5C[C@@H](OC6OC(CO)C(OC7OC(CO)C(O)C(OC8OCC(O)C(O)C8O)C7OC7OC(CO)C(O)C(O)C7OC7OC(CO)C(O)C(O)C7O)C(O)C6O)[C@H](O)C[C@]5(C)[C@H]4CC[C@]3(C)[C@H]1[C@@H]2C (some centres undefined) | > 10 µM (inactive) | > 10 µM (inactive) | 4.59 µM (inactive) | 1.54 µM (inactive) | > 10 µM (inactive) | > 10 µM (inactive) | 1.77 µM (inactive) | 4.29 µM (inactive) | > 10 µM (inactive) | > 10 µM (inactive) | 3.89 µM (inactive) | 3.1 µM (inactive) |  | > 10 µM (inactive) | > 10 µM (inactive) | 3.67 µM (inactive) | 2.82 µM (inactive) | 2.61 µM (inactive) | > 10 µM (inactive) | 2.7 µM (inactive)
